Test results published in US20130310347A1, “MULTI-MODALITY MOLECULAR IMAGING HIGH-THROUGHPUT ASSAY FOR IDENTIFYING HEAT SHOCK PROTEIN 90 (HSP90) INHIBITORS” (The Board of Trustees of the Leland Stanford Junior …, priority 2012, published 2013).

Tests used:
[1] = test system: Hsp90(α/β)/p23 interactions; test: BLI of lead compounds in intact 293T cells with split RL reporters; type: cell-based, human
Protocol: Bioluminescence signals were quantified and normalized for cell number and that of carrier control treated cells (right). Results were expressed as mean±S.E.M.
To determine the effect of lead compounds on disruption of Hsp90(α/β)/p23 interactions in intact cells, 3.5×10^4 293T cells stably transfected with split RL reporters as described in Chan et al., (2008) Cancer Res. 68: 216-226, were plated in each well in the 96-well black wall plate (Costar, Corning, N.Y.) and allowed to attach for 24 h, prior to treatment with different concentrations of the lead compounds for 24 h. The 10 μg/ml of ENDUREN® (in […] of cell culture medium) was added to each well for 1.5 h and RL activities were determined. BLI signals were normalized to that of cell number for each well (determined by Alamar Blue assay (Invitrogen, Carlsbad, Calif.)), prior to normalization to carrier control-treated cells.

[2] = logP value (partition coefficient); type: physicochemical
normal MEF cells = test: 3H-FDG cell uptake (glucose metabolism); type: cell-based, mouse; details: 24 h post treatment
Protocol: FIG. 6B is a graph illustrating the effect of CP9 on glucose metabolism determined in 1975 lung cancer, 2008 ovarian cancer and HT29 colon cancer cells by ^3H-FDG cell uptake studies 24 h post treatment. Normal MEFs were used as a control. Results were expressed as mean counts/μg protein/initial dose±S.E.M. *, p<0.05 vs. carrier control treated cells.
To determine the specificity of CP9 in inhibition of glucose metabolism, normal MEF cells were used as a control.
To determine the downstream effects of lead compounds on glucose metabolism, 1.5×10^5 293T, 1975 and 2008 and MEFs cells plated in 24-well plate for 24 h, prior to treatment with different concentrations of CP9 for 24 or 48 h and subsequent incubation with 1 μCi of ^3H-FDG in 500 μl of medium for 1 h at 37° C. Cells treated with 2.5 μM of PU-H71 served as a positive control. The total counts in each sample were normalized to that of the dose added to each well and to the amount of protein, and expressed as mean counts/dose/μg protein±S.E.M. Likewise, the effect of CP9 on cell proliferation was determined using 1 μCi of ^3H-FLT per well after 2 h of incubation at 37° C.

Hsp90α/p23 interactions = biological target: T1, Hsp90α/p23 interactions (Homo sapiens, UniProt P07900); test: CP9 analogue evaluation, RL/FL imaging in 293Tα-FG cells; type: cell-based; details: time- and dose-response curves in 293T-FG cells; read-out: IC50 for inhibition of Hsp90α/p23 signals
T1 construct: expressed in transfected cells; also with FL-eGFP reporter (293Tα-FG) and as xenografts in nude mice
Protocol: To improve the efficacy of CP9 in disruption of Hsp90(α/β)/p23 interactions in living mice, a structure-activity relationship (SAR) study was performed using 62 structural analogues (10 μM) with different modifications on CP9, as shown in FIGS. 2A-2G, using the 293T(α/β)-FG stable cells. Their effects on Hsp90(α/β)/p23 interactions and cell proliferation were monitored by sequential RL (FIG. 11A) and FL imaging at 24 h. CP9, PU-H71 and 17-AAG were used as positive controls. The net effect on Hsp90(α/β)/p23 interactions was determined by normalizing RL to that of FL signals and to that of carrier control-treated cells (FIG. 11B).
The IC50 for growth inhibition by A17 was about 2-fold lower than that of CP9 (FIG. 12A).
CP9 (0.3-10 μM), 17-AAG (10 μM) and PU-H71 (5 μM) were used as positive controls in triplicate wells. The efficacy of the analogues in disruption of Hsp90(α/β)/p23 and cell proliferation were monitored by RL imaging (2 h post upon addition of ENDUREN® at 30 μM final concentration) followed by FL imaging (10 mins post addition of D-Luc at 0.225 mg/ml final concentration) using a cooled CCD camera (1 min and 10 sec for RL and FL imaging, respectively). […] The effect of the CP9 analogues on degradation of Hsp90 client proteins in 293T cells were also monitored by western blotting as described above.

V79 lung cancer cells = test: Sensitivity to DOX, Alamar Blue assay; type: cell-based; details: DOX 0.31-10 μM with CP9 8 μM, 24 h
Protocol: (§1) FIGS. 13A-13C illustrate the inhibition of cell proliferation of DOX-resistant V79/ADR lung cancer cells by CP9 and the Hsp90 inhibitor PU-H71 in cell culture. V79 lung cancer cells and […] cells that are resistant to DOX were treated with DOX (0.31-10 μM) in the presence or absence of CP9 (8 μM) for 24 h before determination of cell number by an Alamar Blue assay.
(§2) Both Hsp90 isoforms (α and β) are expressed in cancer cells, but Hsp90β is constitutively expressed, whereas the expression of Hsp90α is highly inducible during stress and drug treatment. Using the genetically encoded split Renilla reporter system according to the disclosure, it was possible to decipher the individual contributions of each isoform in determining the sensitivity of Hsp90 inhibitors. It was reported that the transcription of MDR1 is regulated by HSF-1, which in turn is regulated by Hsp90α (Trepel et al., (2010) Nat. Rev. Cancer 10: 537-549). To determine the biological significance of CP9 selectivity in inhibiting Hsp90α/p23 interactions, V79 lung cancer cells and V79/ADR cells that overexpress multidrug-resistant protein and are insensitive to growth inhibition by doxorubicin (DOX) were used. V79 and V79/ADR cells were treated with DOX alone or in the presence of CP9. On the other hand, the addition of CP9 sensitized V79/ADR cells to DOX, as shown by the decrease in cell proliferation relative to treatment with DOX alone, as shown in FIG. 13B. […] The results also are consistent with the observation that derivatives of Hsp90 inhibitor peptides sensitize cancer cells with overexpression of MDR to epirubicin (a class of anthracyclines that includes DOX) (Molnar et al., (2007) In Vivo 21: 429-433).

[3] = test system: DOX-resistant V79/ADR lung cancer cells; test: Sensitivity to DOX, Alamar Blue assay; type: cell-based; details: DOX 0.31-10 μM with inhibitor (CP9 8 μM), 24 h
Protocol: as §1, §2

- logP [2]: 4.1
- IC50 (Hsp90α/p23 interactions): 450 nM
Structure (SMILES): Cc1cc(NC(=O)CSc2nc(-c3cccs3)cc(C(F)(F)F)n2)no1 [CP9, N-(5-methylisoxazol-3-yl)-2-(4-(thiophen-2-yl)-6-(trifluoromethyl)pyrimidin-2-ylthio)acetamide]
- selectivity for Hsp90α/p23 BLI signals relative to Hsp90β/p23 interactions ([1]; 293T cells): more selective for inhibition of Hsp90α/p23 BLI signals
- bioluminescence signals in 293T cells expressing Hsp90α/p23 and Hsp90β/p23 split RL reporters ([1]; 24 h, normalized for cell number and carrier control): dose-dependent decrease
- 3H-FDG uptake in MEFs (normal MEF cells): without significantly affecting
- sensitivity of drug-sensitive V79 cells to DOX (V79 lung cancer cells): did not affect the sensitivity
- sensitivity of drug-resistant V79/ADR cells to DOX [3]: partially restored the sensitivity
